According to patent US7723320B2, “Use of estrogen compounds to increase libido in women” (Pantarhei Bioscience B.V., priority 2001, dated 2010):

Experiments:
[1] = biological target: T1, human sex Hormone Binding Globulin (SHBG) (Homo sapiens, UniProt P04278); assay: Competitive steroid-binding assay, SHBG; conditions: [3H]DHT or [3H]estradiol as labeled ligands
T1 construct: made in house; host or cells: transgenic mouse (purified from serum)
T1 sequence (P04278 30-402): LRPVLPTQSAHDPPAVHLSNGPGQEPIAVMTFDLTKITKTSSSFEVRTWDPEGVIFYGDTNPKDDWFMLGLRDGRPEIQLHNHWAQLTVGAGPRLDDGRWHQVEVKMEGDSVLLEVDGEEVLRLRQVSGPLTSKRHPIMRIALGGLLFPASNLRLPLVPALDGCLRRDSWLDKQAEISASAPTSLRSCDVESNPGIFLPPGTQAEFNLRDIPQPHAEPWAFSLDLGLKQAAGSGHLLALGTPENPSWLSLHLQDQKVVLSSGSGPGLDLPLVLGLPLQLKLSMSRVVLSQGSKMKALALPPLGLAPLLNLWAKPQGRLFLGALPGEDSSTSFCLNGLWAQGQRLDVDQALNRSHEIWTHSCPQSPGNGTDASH
Protocol: Human SHBG was treated for 30 min at room temperature with a dextran-coated charcoal (DCC) suspension in phosphate buffered saline (PBS) to remove any steroid ligand. After centrifugation (2,000×g for 10 min) to sediment the DCC, the supernatant containing the human SHBG was diluted in PBS to a concentration of 1 nM based on its steroid binding capacity.
The average amounts of [^3H]labeled ligands bound to SHBG at each concentration of competitor (B) were expressed as a percentage of the average amounts of [^3H]labeled ligands bound to SHBG in the absence of competitor (B0), and were plotted against the concentration of competitor in each assay tube.

[2] = test system: ovariectomized adult rats; assay: Vaginal cornification bioassay in ovariectomized rats; assay type: in vivo, rat; conditions: 0.05 mg/kg/day
From the text: Uterine weight increase in the rat is more commonly used as a measure of estrogenicity. […] In the early 1920s it was discovered that follicular fluid from the pig ovary contained a factor(s) that caused cornification/keratinization of the vaginal epithelium in the rat (Allen and Doisy, 1923, JAMA, 81,819-821; Allen and Doisy, 1924, Am. J. Physiol., 69, 577-588). The so-called vaginal cornification response in rats subsequently provided a bioassay for testing estrogenicity. Vaginal epithelial cornification/keratinization in ovariectomized rats can be produced only by compounds considered to be true estrogens (Jones et al, 1973, Fert. Steril. 24, 284-291). […] Adult intact female CD rats were ovariectomized to induce estrogen deficiency. […] Castrate vaginal smears are indicative that complete ovanectomy was achieved. Treatment commenced following completion of the 7 days of smearing (day 0=first day of dosing). Animals were dosed, once daily for 7 consecutive days. Daily vaginal lavages continued to be obtained for 7 days after dosing was initiated in order to detect vaginal cornification, as an indication of an estrogenic response. A drop of vaginal washings was placed on a glass slide and examined by light microscopy to detect the presence or absence of cornified epithelial cells. Vaginal lavages were obtained prior to dosing on days 0-6 and prior to necropsy on day 7. The vaginal cornification bioassay was performed in order to determine the estrogenic profile of E4 when given subcutaneously (sc) to ovariectomized adult rats. E2 was used as a positive control. […] The vaginal cornification bioassay was performed in order to determine the estrogenic profile of E4 when given orally (po) to ovariectomized adult rats. EE was used as a positive control. […] A vaginal estrogenic response occurred in all rats (8/8) given 50 μg/kg/day EE po by day 7 (Table 2).

C[C@]12CCC(=O)C[C@@H]1CC[C@@H]1[C@@H]2CC[C@]2(C)[C@@H](O)CC[C@@H]12 [5α-dihydrotestosterone]
relative binding affinity for human SHBG [1]: in this order, show an increased relative binding affinity

C[C@]12CC[C@@H]3c4ccc(O)cc4CC[C@H]3[C@@H]1CC[C@@H]2O [E2, 17β-estradiol, reference compound]
Number of Rats Exhibiting Estrogenic Response/Number of Rats Treated ([2]; sc, Day 0): 0/8
Number of Rats Exhibiting Estrogenic Response/Number of Rats Treated ([2]; sc, Day 1): 0/8
Number of Rats Exhibiting Estrogenic Response/Number of Rats Treated ([2]; sc, Day 2): 8/8
Number of Rats Exhibiting Estrogenic Response/Number of Rats Treated ([2]; sc, Day 3): 8/8
Number of Rats Exhibiting Estrogenic Response/Number of Rats Treated ([2]; sc, Day 4): 8/8
Number of Rats Exhibiting Estrogenic Response/Number of Rats Treated ([2]; sc, Day 5): 8/8
Number of Rats Exhibiting Estrogenic Response/Number of Rats Treated ([2]; sc, Day 6): 8/8
Number of Rats Exhibiting Estrogenic Response/Number of Rats Treated ([2]; sc, Day 7): 8/8

C#C[C@]1(O)CC[C@H]2[C@@H]3CCc4cc(O)ccc4[C@H]3CC[C@@]21C [EE, 17α-ethinylestradiol, reference compound]
Number of Rats Exhibiting Estrogenic Response/Number of Rats Treated ([2]; po, Day 0): 0/8
Number of Rats Exhibiting Estrogenic Response/Number of Rats Treated ([2]; po, Day 1): 1/8
Number of Rats Exhibiting Estrogenic Response/Number of Rats Treated ([2]; po, Day 2): 3/8
Number of Rats Exhibiting Estrogenic Response/Number of Rats Treated ([2]; po, Day 3): 8/8
Number of Rats Exhibiting Estrogenic Response/Number of Rats Treated ([2]; po, Day 4): 8/8
Number of Rats Exhibiting Estrogenic Response/Number of Rats Treated ([2]; po, Day 5): 8/8
Number of Rats Exhibiting Estrogenic Response/Number of Rats Treated ([2]; po, Day 6): 8/8
Number of Rats Exhibiting Estrogenic Response/Number of Rats Treated ([2]; po, Day 7): 8/8

C[C@]12CC[C@H]3[C@@H](CCC4=CC(=O)CC[C@@]43C)[C@@H]1CC[C@@H]2O [testosterone]
relative binding affinity for human SHBG [1]: in this order, show an increased relative binding affinity
